Measurements taken from article PMC5773580, “A synthetic combinatorial approach to disabling deviant Hedgehog signaling” (Scientific Reports, 2018).

Assays:
[1] = tested on: SMO-M2 in NIH3T3 (GLI-BS reporter); experiment: GLI-BS reporter assay, NIH3T3 cells with SMO-M2 DNA; type: cell-based; conditions: Mus musculus
Description: (§1) The HH-responsive firefly luciferase reporter (GLI-BS) and a control Renilla luciferase reporter (SV40-RL) were transfected into indicated cell lines using Effectene (Qiagen) either alone or with indicated DNAs. 24 hrs after transfection, cells were switched to low serum media (3% calf serum), and grown for another 48 hrs. in 5% CO2 in the presence/absence of compounds. 3T3-ShhFL cell line that stably expressing SHH and the two reporters were cultured in a similar fashion. FL and RL activities in lysate generated using Passive Lysis Buffer (Promega) were then assessed using the Dual-Luciferase kit (Promega) and a 96-well plate reading luminometer (BMG). The ratio of FL/RL was calculated and the averaged ratios from three replicates were reported.

[2] = tested on: SHH-induced GLI activity (GLI-BS reporter) in NIH3T3; experiment: HH pathway reporter (GLI-BS reporter) assay, +Shh in NIH3T3; type: cell-based; conditions: Mus musculus; +Shh in NIH3T3, 48 hrs with compound
Description: as §1

[3] = tested on: SMO-L412F in NIH3T3 (GLI-BS reporter); experiment: GLI-BS reporter assay, NIH3T3 cells with SMO-L412F DNA; type: cell-based; conditions: Mus musculus
Description: as §1

[4] = tested on: GLI-BS reporter in Ptch1-/- MEFs; experiment: GLI-BS reporter assay in Ptch1-/- MEFs; type: cell-based
Description: as §1

[5] = tested on: RMS13 cells (GLI1 amp), GLI-BS reporter; experiment: GLI-BS reporter assay in RMS13 cells (GLI1 amplification); type: cell-based
Description: as §1

[6] = tested on: HDAC activity (acetylated tubulin) in NIH-3T3 cells; experiment: Acetylation assay, Western blot of acetylated tubulin; type: cell-based; conditions: 48hrs
Description: (§2) For analyzing acetylation status of histone 3 and tubulin, NIH3T3 cells were grown to confluence in 6-well plates. After 48hrs of treatment with indicated chemicals, cells were lysed in RIPA buffer or 1% NP40/phosphate buffered saline/protease inhibitors (SIGMA, #S8820), the lysate cleared using a microcentrifuge, then 6 × sample loading buffer (Bioland Scientific) added to the supernatant. Proteins were separated on SDS-PAGE (BioRad Criterion TGX Precast Gels). Antibodies used for analyzing the blots were: acetylated tubulin (SIGMA, #T6793), tubulin, acetyl-histone H3 (Lys23), and histone H3 (Cell Signaling Technology, #2125 S, #8848 and #9717, respectively). Chemiluminescence was detected using a Li-COR Odyssey Imaging System.

[7] = tested on: nuclear HDAC activity (Ac-H3) in NIH-3T3 cells; experiment: Acetylation assay, Western blotting for acetylated histone 3 (Ac-H3); type: cell-based; conditions: 48hrs, Western blot
Description: as §2

Caco-2 cells = experiment: Caco-2 transwell cell permeability assay read out with 3T3-ShhFL reporter cells; type: in vitro ADME; conditions: 10μM, 6hrs, "B" CM tested on 3T3-ShhFL cells
Description: Caco-2 cell permeability assay was previously described. Briefly, Caco-2 cells were grown to confluence in 12-well transwell plates. Culture medium was replaced with 10μM of compounds in DMEM/ 3% calf serum and incubated for 6hrs. Diluted media were added to confluent 3T3-ShhFL cells for 48hrs and measure the Hh pathway activity by reporter assay.

[8] = tested on: GLI1 binding to DNA in RMS13 cells; experiment: GLI DNA binding assay (biotinylated oligo pulldown); type: cell-based; conditions: lysate of RMS13 cells treated 48 hrs
Description: A detailed protocol for DNA binding assay was previously described. Briefly, cells treated for 48 hrs with compounds were lysed in 1% NP40/phosphate buffered saline/protease inhibitors and cleared using a microcentrifuge. The lysate was then incubated with 0.5 µM of double-strand biotinylated oligonucleotides and 40 µl streptavidin-agarose bead suspension (Thermo Scientific, 20349) for 2 hrs. The streptavidin agarose beads are washed (3X) with 1% NP40/phosphate buffered saline/protease inhibitors and eluted with 2X Laemmli sample buffer. The supernatants are separated on SDS-PAGE and analyzed using western blotting. Antibodies were purchased from the following vendors: GLI1 (Cell Signaling Technology, #2534) and actin (SIGMA, #A5441).

Which results are given for `O=C(CCCCCCC(=O)Nc1ccc(Cl)c(C(=O)Nc2cccc(NC(=O)c3cc(Cl)ccc3Cl)c2)c1)NO` [IHR (meta)-SAHA]?
IC50 [1]: 850 nM; IC50 [2]: 2300 nM; IC50 [3]: 920 nM; IC50 [4]: 2500 nM; IC50 [5]: 1200 nM; HDAC inhibitory activity, acetylated tubulin accumulation (ratio to total tubulin), compared with SAHA [6]: increase in anti-HDAC activity; HDAC inhibitory activity, accumulation of acetylated histone 3 (ratio Ac-H3 to total H3) [7]: retain HDAC inhibitory activity

What does the source list for `O=C(Nc1ccc(NC(=O)c2cc(Cl)ccc2Cl)cc1)c1cc(Cl)ccc1Cl` [IHR-1, reference compound]?
IC50 [2]: 7 nM; IC50 [4]: 25 nM

`CC(C)(C)OC(=O)NCCCCCCC(=O)Nc1ccc(Cl)c(C(=O)Nc2ccc(NC(=O)c3cc(Cl)ccc3Cl)cc2)c1` [IHR-C7] was tested. Which IC50 [2] did it give?
The IC50 was 4 nM.

And the “ability to transverse a cell monolayer (cell permeability)” value (Caco-2 cells)?
Its value is “improved”.

`CC(C)(C)OC(=O)Nc1ccc(Cl)c(C(=O)Nc2ccc(NC(=O)c3cc(Cl)ccc3Cl)cc2)c1` [IHR-NBoc, tert-butyl (4-chloro-3-((4-(2,5-dichlorobenzamido)phenyl)carbamoyl)phenyl)carbamate] was tested. Which IC50 [2] did it give?
The IC50 was 1.9 nM.

With `O=C(CCCCCCC(=O)Nc1ccccc1)NO` [SAHA, suberanilohydroxamic acid] as the compound, how does the “GLI1 binding to immobilized oligos with consensus GLI binding sequence” value [8] read?
The value was “loss of GLI1 binding”.
